In patent US20160015770A1, “COMPOSITIONS FOR TREATMENT OF RETINAL DETACHMENT” (THE REGENTS OF THE UNIVERSITY OF MICHIGAN, priority 2013, published 2016):
“Also recorded” adds a separate entry of the source.

Columns and labels:
caspase 8 = test: Caspase 8 activity luminescent assay in Fas-activated 661W cells; type: cell-based, mouse
Description: Caspase 8 activity was measured by a commercially available luminescent cleavage assay kit (Promega, Madison, Wis.). The 661W cells were seeded in 96-well plates at 2,000 cells/well for 24 hours before treatment. Cells were treated with 500 ng/mL Fas-agonistic Jo2 monoclonal antibody and various concentrations of calpeptin or equal volume of DMSO. Caspase 8 activity was measured at 48 hours by incubating the cells with the proluminescent substrate in 96-well plates according to the manufacturer's instructions. Controls included untreated cells and wells with no cells. Luminescence was measured in a plate reader luminometer (Turner Biosystems, Sunnyvale, Calif.).

661W cells = test: Western blot of autophagy markers LC3-II and Atg5-12 in 661W cells treated with Fas activating antibody; type: cell-based, mouse; set-up: presence of LC3-II and Atg5-12 over time (prolongation of autophagy): dose or concentration left out as unconfirmed; conditions: Fas activation
Description: The 661W photoreceptor cell line was generously provided by Dr. Muayyad Al-Ubaidi (Department of Cell Biology, University of Oklahoma Health Sciences Center, Oklahoma City, Okla.). The 661W cell line was maintained in Dulbecco's modified Eagle's medium containing 10% fetal bovine serum, 300 mg/L glutamine, 32 mg/L putrescine, 40 μL/L β-mercaptoethanol, and 40 μg/L of both hydrocortisone 21-hemisuccinate and progesterone. The media also contained penicillin (90 units/mL) and streptomycin (0.09 mg/mL). Cells were grown at 37° C. in a humidified atmosphere of 5% CO2 and 95% air. Retinas from experimental eyes with detachment (detached portion of retina only) and control eyes without detachment were dissected from the RPE-choroid, homogenized, and lysed in buffer containing 10 mM HEPES (pH 7.6), 0.5% […], 42 mM KCl, 1 mM phenylmethylsulfonyl fluoride, 1 mM EDTA, 1 mM EGTA, 1 mM dithiothreitol, 5 mM MgCl2, and one tablet of protease inhibitors per 10 mL buffer (Complete Mini; Roche Diagnostics GmbH, Madison, Wis.). 661W cells were plated at 150,000 cells per well in six-well culture dishes in growth media. […] The protein concentration of the supernatant was then determined (DC Protein Assay kit; Bio-Rad Laboratories, Hercules, Calif.). The protein samples were separated on SDS-polyacrylamide gels (Tris-HCl Ready Gels; Bio-Rad Laboratories). […]

calpain 1 = biological target: T1, calpain 1 (Rattus norvegicus, UniProt P97571); test: Experimental retinal detachment, western blot of calpain 1 specific cleaved alpha-spectrin in retina; type: in vivo; conditions: 0.2 μg subretinal at time of detachment, 7 days after detachment, vs vehicle (DMSO)
T1 construct: Retinas from experimental eyes with detachment (detached portion of retina only) and control eyes without detachment were dissected from the RPE-choroid, homogenized, and lysed; from tissue; host or cells: rat retina (in vivo retinal detachment model)
T1 sequence (P97571 1-713): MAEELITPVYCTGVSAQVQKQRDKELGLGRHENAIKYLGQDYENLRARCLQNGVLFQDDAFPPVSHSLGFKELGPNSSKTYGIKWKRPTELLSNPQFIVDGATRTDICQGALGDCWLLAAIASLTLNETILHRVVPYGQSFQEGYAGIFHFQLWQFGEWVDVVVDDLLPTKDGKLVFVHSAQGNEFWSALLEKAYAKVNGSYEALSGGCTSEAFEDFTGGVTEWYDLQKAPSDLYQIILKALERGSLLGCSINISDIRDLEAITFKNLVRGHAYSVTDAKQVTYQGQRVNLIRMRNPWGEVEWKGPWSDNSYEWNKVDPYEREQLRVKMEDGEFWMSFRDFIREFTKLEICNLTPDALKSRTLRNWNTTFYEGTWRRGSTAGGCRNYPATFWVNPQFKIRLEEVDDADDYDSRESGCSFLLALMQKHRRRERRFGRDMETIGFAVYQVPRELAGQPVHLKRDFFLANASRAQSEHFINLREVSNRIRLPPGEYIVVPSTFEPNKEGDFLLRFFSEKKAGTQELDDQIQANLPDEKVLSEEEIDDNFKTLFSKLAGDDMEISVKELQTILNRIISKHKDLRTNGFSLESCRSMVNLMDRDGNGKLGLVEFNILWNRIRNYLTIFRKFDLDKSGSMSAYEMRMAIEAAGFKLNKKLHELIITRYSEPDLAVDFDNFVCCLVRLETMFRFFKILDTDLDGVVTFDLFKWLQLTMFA
T1 sequence (Q64537 1-270 partner): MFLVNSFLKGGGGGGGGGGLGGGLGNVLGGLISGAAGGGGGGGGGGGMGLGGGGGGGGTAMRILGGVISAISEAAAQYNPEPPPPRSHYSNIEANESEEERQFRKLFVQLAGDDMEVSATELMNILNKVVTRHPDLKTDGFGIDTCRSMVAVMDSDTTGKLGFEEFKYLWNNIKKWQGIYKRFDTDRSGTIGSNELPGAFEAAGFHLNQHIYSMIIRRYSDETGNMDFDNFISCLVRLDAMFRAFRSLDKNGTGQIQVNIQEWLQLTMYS
Description: Detachments were created in adult male Brown-Norway rats (300-400 g; Charles River Laboratories, Wilmington, Mass.) as described previously. Briefly, rodents were anesthetized with a 50:50 mix of ketamine/xylazine, and pupils were dilated with topical phenylephrine (2.5%) and tropicamide (1%). A 20-gauge microvitreoretinal blade was used to create a sclerotomy 2 mm posterior to the limbus, carefully avoiding lens damage. A subretinal injector (Glaser, 32-gauge tip; BD Ophthalmic Systems, Franklin Lakes, N.J.) was introduced through the sclerotomy into the vitreous cavity and then through a peripheral retinotomy into the subretinal space. […]
Retinas from experimental eyes with detachment (detached portion of retina only) and control eyes without detachment were dissected from the RPE-choroid, homogenized, and lysed in buffer containing 10 mM HEPES (pH 7.6), 0.5% IgEPal, 42 mM KCl, 1 mM phenylmethylsulfonyl fluoride, 1 mM EDTA, 1 mM EGTA, 1 mM dithiothreitol, 5 mM MgCl2, and one tablet of protease inhibitors per 10 mL buffer (Complete Mini; Roche Diagnostics GmbH, Madison, Wis.). […] The protein concentration of the supernatant was then determined (DC Protein Assay kit; Bio-Rad Laboratories, Hercules, Calif.). The protein samples were separated on SDS-polyacrylamide gels (Tris-HCl Ready Gels; Bio-Rad Laboratories). […]

CCCC[C@@H](C=O)NC(=O)[C@H](CC(C)C)NC(=O)OCc1ccccc1 [calpeptin]
caspase 8 activity (caspase 8; 661W cells not treated with Fas activating antibody, calpeptin alone): no effect
caspase 8 activity (caspase 8; 661W cells, Fas activating antibody 48 hours, 1 μM): little effect
caspase 8 activity (caspase 8; 661W cells, Fas activating antibody 48 hours, 10 uM): returned caspase 8 activity to baseline levels; also recorded: significantly reduced its activity back to baseline
caspase 8 activity (caspase 8; 661W cells, Fas activating antibody 48 hours, 25 uM): returned caspase 8 activity to baseline levels; also recorded: significantly reduced its activity back to baseline
dose at which LC3-II and Atg5-12 peaked (dose response for increasing autophagy) (661W cells; 24 hours): 25 µM
presence of LC3-II and Atg5-12 over time (prolongation of autophagy) (661W cells; various lengths of time, calpeptin as printed, vs Fas activation alone / DMSO): lasted for an extended period of time; also recorded: elongated presence of LC3-II and Atg5-12
cleaved calpain 1 specific alpha-spectrin in retina (calpain 1): significantly less; also recorded: less cleaved alpha-spectrin
